Data reported in ChEMBL document CHEMBL5649166, “RIP3 induces apoptosis independent of pronecrotic kinase activity” (Mol Cell, 2014).

Assays:
[1] = biological target: Dual specificity protein kinase CLK3 (Homo sapiens) (UniProt P49761); assay: Residual activity of human CLK3 using myelin basic protein as substrate at 1 uM in presence of 32P-ATP by Hotspot assay relative to control
[2] = biological target: T1, Serine/threonine-protein kinase D3 (Homo sapiens) (UniProt O94806); assay: Inhibition of human PKCnu/PRKD3 using KKLNRTLSVA as substrate at 1 uM in presence of 32P-ATP by Hotspot assay relative to control; values are per cent of control
T1 sequence (whole entry): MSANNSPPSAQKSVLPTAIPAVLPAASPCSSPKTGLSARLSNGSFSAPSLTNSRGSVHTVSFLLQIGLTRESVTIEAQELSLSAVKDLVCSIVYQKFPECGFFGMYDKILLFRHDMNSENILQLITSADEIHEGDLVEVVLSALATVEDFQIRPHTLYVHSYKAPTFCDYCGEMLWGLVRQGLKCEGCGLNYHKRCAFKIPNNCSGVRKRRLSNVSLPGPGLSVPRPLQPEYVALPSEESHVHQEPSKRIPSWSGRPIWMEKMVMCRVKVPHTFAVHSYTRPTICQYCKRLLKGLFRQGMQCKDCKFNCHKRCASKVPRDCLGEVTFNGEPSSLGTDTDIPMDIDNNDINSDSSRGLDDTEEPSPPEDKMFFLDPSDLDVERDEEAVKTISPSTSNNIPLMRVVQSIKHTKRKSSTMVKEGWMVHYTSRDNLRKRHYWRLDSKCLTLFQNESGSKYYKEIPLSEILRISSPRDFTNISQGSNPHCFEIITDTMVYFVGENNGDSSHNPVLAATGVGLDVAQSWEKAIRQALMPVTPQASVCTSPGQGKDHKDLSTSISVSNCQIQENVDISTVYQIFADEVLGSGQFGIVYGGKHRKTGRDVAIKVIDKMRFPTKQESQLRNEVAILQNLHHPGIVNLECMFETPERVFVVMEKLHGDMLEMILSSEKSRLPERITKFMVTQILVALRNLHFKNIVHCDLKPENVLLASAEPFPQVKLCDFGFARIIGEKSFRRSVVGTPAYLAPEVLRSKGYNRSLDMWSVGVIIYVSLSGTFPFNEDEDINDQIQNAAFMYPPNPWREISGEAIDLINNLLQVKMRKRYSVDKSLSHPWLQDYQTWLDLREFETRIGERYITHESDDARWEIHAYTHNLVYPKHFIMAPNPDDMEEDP

[3] = biological target: Ribosomal protein S6 kinase beta-1 (Homo sapiens) (UniProt P23443); assay: Inhibition of human p70S6K/RPS6KB1 using KKRNRTLTK as substrate at 1 uM in presence of 32P-ATP by Hotspot assay relative to control; values are per cent of control
[4] = biological target: MAP kinase-interacting serine/threonine-protein kinase 2 (Homo sapiens) (UniProt Q9HBH9); assay: Inhibition of human MNK2 using myelin basic protein as substrate at 1 uM in presence of 32P-ATP by Hotspot assay relative to control; values are per cent of control
[5] = biological target: Interleukin-1 receptor-associated kinase 1 (Homo sapiens) (UniProt P51617); assay: Inhibition of human IRAK1 using myelin basic protein as substrate at 1 uM in presence of 32P-ATP by Hotspot assay relative to control; values are per cent of control
[6] = biological target: T2, Mitogen-activated protein kinase kinase kinase 5 (Homo sapiens) (UniProt Q99683); assay: Inhibition of human ASK1/MAP3K5 using myelin basic protein as substrate at 1 uM in presence of 32P-ATP by Hotspot assay relative to control; values are per cent of control
T2 sequence (whole entry): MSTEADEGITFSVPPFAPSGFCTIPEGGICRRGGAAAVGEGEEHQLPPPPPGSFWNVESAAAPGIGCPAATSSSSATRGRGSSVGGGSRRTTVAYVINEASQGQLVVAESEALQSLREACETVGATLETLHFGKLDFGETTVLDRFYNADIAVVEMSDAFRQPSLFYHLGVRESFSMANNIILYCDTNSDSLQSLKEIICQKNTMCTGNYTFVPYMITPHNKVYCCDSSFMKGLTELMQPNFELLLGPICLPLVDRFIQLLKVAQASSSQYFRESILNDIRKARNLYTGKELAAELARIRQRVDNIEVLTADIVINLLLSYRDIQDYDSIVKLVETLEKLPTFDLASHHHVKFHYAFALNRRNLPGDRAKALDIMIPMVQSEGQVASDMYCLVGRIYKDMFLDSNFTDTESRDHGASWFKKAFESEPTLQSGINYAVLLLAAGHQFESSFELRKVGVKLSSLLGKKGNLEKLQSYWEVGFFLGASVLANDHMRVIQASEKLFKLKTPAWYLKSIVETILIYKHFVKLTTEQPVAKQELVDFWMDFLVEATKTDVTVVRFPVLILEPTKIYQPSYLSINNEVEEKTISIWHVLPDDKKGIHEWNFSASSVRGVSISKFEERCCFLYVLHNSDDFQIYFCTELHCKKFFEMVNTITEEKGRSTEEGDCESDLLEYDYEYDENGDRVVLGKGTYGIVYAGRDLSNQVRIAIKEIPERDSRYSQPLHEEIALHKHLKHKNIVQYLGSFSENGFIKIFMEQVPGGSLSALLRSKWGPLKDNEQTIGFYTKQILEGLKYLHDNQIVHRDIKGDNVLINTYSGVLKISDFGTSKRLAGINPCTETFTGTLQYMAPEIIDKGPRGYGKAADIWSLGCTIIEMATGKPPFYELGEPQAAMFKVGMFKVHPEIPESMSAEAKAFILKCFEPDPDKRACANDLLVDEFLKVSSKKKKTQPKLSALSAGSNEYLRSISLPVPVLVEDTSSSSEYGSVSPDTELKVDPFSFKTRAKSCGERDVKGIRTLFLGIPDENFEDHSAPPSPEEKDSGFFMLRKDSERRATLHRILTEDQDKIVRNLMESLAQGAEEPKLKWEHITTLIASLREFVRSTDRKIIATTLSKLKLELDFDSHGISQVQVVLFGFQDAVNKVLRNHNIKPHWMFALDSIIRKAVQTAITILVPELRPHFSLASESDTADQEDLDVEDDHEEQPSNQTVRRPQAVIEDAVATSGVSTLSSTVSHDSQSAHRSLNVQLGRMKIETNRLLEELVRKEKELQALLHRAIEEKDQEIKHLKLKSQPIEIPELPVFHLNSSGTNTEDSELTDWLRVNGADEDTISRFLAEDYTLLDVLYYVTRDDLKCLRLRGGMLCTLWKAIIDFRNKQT

Sequence of Ribosomal protein S6 kinase beta-1 (Homo sapiens) (P23443 whole entry, looked up): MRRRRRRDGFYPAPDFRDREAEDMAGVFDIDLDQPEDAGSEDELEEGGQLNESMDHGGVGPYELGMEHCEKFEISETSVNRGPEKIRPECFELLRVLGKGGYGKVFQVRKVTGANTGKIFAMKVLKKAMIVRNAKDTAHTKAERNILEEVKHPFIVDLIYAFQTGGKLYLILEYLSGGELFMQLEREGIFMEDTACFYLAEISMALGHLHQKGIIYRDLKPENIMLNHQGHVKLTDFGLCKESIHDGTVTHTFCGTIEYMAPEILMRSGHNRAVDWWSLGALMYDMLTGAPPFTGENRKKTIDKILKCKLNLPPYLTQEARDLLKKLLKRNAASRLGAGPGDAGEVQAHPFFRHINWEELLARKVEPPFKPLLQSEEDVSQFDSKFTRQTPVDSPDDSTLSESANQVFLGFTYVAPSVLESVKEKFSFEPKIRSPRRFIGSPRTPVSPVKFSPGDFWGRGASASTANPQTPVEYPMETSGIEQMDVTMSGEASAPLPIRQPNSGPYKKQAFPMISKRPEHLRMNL
Sequence of MAP kinase-interacting serine/threonine-protein kinase 2 (Homo sapiens) (Q9HBH9 whole entry, looked up): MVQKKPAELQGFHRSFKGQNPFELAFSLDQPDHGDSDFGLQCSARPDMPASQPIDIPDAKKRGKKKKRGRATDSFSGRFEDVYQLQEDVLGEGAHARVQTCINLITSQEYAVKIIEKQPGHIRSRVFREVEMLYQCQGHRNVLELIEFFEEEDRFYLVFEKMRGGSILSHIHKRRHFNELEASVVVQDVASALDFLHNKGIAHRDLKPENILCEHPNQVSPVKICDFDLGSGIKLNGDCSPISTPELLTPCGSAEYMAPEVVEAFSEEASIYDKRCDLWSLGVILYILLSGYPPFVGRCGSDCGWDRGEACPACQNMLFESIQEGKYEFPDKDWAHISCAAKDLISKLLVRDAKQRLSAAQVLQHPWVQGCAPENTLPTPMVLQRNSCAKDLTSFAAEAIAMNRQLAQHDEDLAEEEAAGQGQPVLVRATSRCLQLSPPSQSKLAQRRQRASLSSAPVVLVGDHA
Sequence of Dual specificity protein kinase CLK3 (Homo sapiens) (P49761 whole entry, looked up): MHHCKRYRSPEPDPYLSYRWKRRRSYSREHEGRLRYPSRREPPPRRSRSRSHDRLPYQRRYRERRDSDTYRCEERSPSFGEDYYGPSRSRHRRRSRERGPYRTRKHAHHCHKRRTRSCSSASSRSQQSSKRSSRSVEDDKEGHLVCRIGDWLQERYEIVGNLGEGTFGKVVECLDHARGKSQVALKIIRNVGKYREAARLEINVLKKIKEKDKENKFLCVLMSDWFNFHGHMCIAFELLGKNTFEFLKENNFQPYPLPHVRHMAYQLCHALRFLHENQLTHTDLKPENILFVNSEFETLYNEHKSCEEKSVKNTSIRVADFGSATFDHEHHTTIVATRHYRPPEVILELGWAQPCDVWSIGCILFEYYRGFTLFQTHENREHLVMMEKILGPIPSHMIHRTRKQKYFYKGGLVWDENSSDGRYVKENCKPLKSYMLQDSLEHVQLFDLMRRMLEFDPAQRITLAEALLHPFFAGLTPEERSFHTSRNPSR
Sequence of Interleukin-1 receptor-associated kinase 1 (Homo sapiens) (P51617 whole entry, looked up): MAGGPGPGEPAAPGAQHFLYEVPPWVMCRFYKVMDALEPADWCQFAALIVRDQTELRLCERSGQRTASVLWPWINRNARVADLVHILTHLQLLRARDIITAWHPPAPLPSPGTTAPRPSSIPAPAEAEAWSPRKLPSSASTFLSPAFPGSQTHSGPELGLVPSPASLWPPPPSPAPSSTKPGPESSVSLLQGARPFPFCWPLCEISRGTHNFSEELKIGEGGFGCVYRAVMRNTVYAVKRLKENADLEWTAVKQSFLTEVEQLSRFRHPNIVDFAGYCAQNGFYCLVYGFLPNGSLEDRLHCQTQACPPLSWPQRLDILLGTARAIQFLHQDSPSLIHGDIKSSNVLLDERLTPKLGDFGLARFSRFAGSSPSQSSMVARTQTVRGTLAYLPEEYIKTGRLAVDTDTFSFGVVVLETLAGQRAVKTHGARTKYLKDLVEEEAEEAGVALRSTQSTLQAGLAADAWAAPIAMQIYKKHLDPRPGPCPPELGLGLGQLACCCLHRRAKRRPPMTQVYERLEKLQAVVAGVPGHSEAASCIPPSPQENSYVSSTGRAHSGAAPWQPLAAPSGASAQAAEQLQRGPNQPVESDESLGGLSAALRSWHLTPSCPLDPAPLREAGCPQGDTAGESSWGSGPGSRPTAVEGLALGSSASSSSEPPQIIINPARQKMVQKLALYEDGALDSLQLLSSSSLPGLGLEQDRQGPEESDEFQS

Row | Structure (SMILES) | residual activity [1] [%] | residual activity [2] [%] | residual activity [3] [%] | residual activity [4] [%] | residual activity [5] [%] | residual activity [6] [%]
1 | Cc1cc(-c2cnc(N)c3c(-c4ccc5scnc5c4)csc23)n(C)n1 | 98.3 | 33.4 | 93.6 | 97.9 | 90 | 102
2 | CC(C)S(=O)(=O)c1ccc2nccc(Nc3ccc4scnc4c3)c2c1 | 99 | 95.4 | 108 | 96 | 102 | 97.6
3 | CNC(=O)c1ccc2c(c1)ncn2-c1ccc(CC(=O)OC(C)(C)C)cc1 | 97.4 | 101 | 99.1 | 70.6 | 78.6 | 96.7
